{"source": "patent US10849904B2", "about": "“Methods for treatment of retinal disease by photoreceptor gene expression modulation” (University of Washington, priority 2015, dated 2020)", "key": {"rhodopsin": {"tested_on": "rhodopsin", "assay": "IP injection of P2 or P3 pups, rhodopsin expression by qPCR", "assay_type": "in vivo, mouse", "conditions": "pups IP 20 μl of 50 mM at P2 or P3, sacrificed the following day, vs DMSO", "method": "Nr2e3 is expressed in developing rods prior to birth, and so to test whether PR1 could affect prenatal rod development, wild type timed-pregnant dams were injected with 100 μl of 50 mM PR1 at E14 and E17, during peak S cone photoreceptor genesis and the onset of Nr2e3 expression (FIG. 7F). The pups were sacrificed at P0 and their retinas collected for staining and for quantifying S opsin+ photoreceptors. […] To determine if PR1 affected rhodopsin expression in developing rods in vivo, pups were injected with 20 μl of 50 mM PR1 or an equal volume of DMSO at P2 or P3 (FIG. 7I). The pups were sacrificed the following day and analyzed rhodopsin expression by qPCR.\n(§1) RNA was isolated using TRIzol (Invitrogen) and cDNA was synthesized using the iScript cDNA synthesis kit (Bio-Rad) following an intervening DNase treatment with RQ1 RNase-free DNase (Promega). SSO Fast (Bio-Rad) was used for quantitative real-time PCR. For analysis, values were normalized to Gapdh and ΔΔCt between DMSO and compound-treated samples was expressed as percent of DMSO treated controls (100*2^ΔΔCt). Two-way Student's t-tests were performed on ΔCt values.\nFor intravitreal injections, adult mice (>P21) were anesthetized with isoflurane and injected with 1.5 μl of 10 mM PR1 using a 32-gauge Hamilton needle. […]"}, "[1]": {"tested_on": "Human retinal explants from 113 day post-conception fetuses", "assay": "Human fetal retinal explant culture, qPCR for RHO expression", "assay_type": "cell-based", "conditions": "10 μM, vs DMSO", "method": "Nr2e3 loss-of-function mutations lead to a reduction in rod gene expression. To determine whether the same was true for PR1 (FIG. 6D), explant cultures of P12 retina as above were treated and assayed for other rod photoreceptor genes. After 2 days in culture, PR1 decreased the expression of the rod specific genes Nrl, Nr2e3, Rho, Gnat1, and Pde6b compared to DMSO treatment by qPCR analysis (FIG. 6C). […] To determine the dose-response relationship between PR1 concentration and expression of rod genes, retinas from P12 mice were explanted in media containing DMSO or 0.1, 1, 5, or 10 μM PR1 for 2-3 days and assayed Nrl, Nr2e3, and Rho expression by qPCR. […] PR1 was tested to determine whether it could cause a reduction in Rho expression in human rod photoreceptors as well. Pairs of 113 day post-conception retinas were explanted in media with DMSO or 10 μM PR1 for 7 or 23 days. […]\nas §1, with “Two-way Student's t-tests were performed on ΔCt values.” left out"}}, "data": [{"molecule": "Cc1cc(C)cc(NC(=O)CCc2nc3sc4c(c3c(=O)[nH]2)CCCC4)c1", "note": "[PR1, N-(3,5-dimethylphenyl)-3-(4-oxo-5,6,7,8-tetrahydro-3H-[1]benzothiolo[2,3-d]pyrimidin-2-yl)propanamide]", "values": [{"measurement": "rhodopsin expression by qPCR", "setting": "rhodopsin", "value": "decreased rhodopsin"}, {"measurement": "Rho expression", "setting": "[1]; 7 days in culture", "value": "decreased"}, {"measurement": "Rho expression", "setting": "[1]; 23 days in culture", "value": "decreased"}]}]}
